Experiments:
BTK [1] = target: T1, BTK (Homo sapiens (Human), UniProt Q06187); test: BTK occupancy from in vitro samples by ELISA (Ramos cells); assay type: cell-based
Procedure: In order to determine the amount of free BTK in cell or tissue lysates, an ELISA protocol was employed that utilizes a biotinylated probe compound that binds only to free, unoccupied BTK. The conjugated biotin is captured on a streptavidin-coated ELISA plate and detected with a mouse anti-BTK antibody (Becton Dickinson, Franklin Lakes, N.J., USA) and a secondary goat anti-mouse HRP antibody (Zymed, South San Francisco, Calif., USA).
All samples were prepared with equal concentrations of Biorad lysis buffer (Hercules, Calif., USA), 0.5% bovine serum albumin in PBS with 0.05% Tween-20 to give a final concentration of 1 μM I-215. Samples were incubated in a mixing plate for 1 hr at room temperature while shaking to allow probe compound I-215 to bind to free BTK. After incubation with I-215, samples were added to a washed, streptavidin-coated ELISA plate (Pierce, Rockford, Ill., USA) and incubated for 1 hr at room temperature while shaking. The plate was then washed with PBS containing 0.05% Tween-20 using an automatic plate washer. Anti-BTK antibody was prepared at 1:1000 dilution in 0.5% BSA in PBS (0.05% Tween-20) and added to the ELISA plate. The plate was incubated for 1 hr at room temperature while shaking. The plate was washed as described above and the secondary HRP antibody was prepared at 1:5000 dilution in 0.5% BSA in PBS (0.05% Tween-20). The plate was incubated and washed as described above. TMB was added to the plate, and OD650 was monitored until reaching 1 OD unit. The reaction was then stopped with addition of H2SO4. The plate was analyzed using Gen 5 software, and a 4 Parameter Logistic curve was employed to quantitate samples. Recombinant BTK (Invitrogen, Carlsbad, Calif., USA) was used for the standard curve.
A concentration designated as “A” is greater than 1 nM; a concentration designated as “B” is greater than 10 nM; and a concentration designated as “C” is greater than 50 nM.

BTK [2] = target: T1, BTK; test: BTK occupancy in Ramos cells with I-7 and probe I-215 using streptavidin beads; assay type: cell-based; details: 1 hour, higher concentrations of I-7 (above 10 nM)
Procedure: Ramos cells were incubated with 0.1, 0.05, 0.01, or 0.001 μM I-7 in serum free media for 1 hour at 37° C. The cells were pelleted by centrifugation and lysed in Cell Extraction buffer (Invitrogen) for 10 minutes on ice, centrifuged (10 minutes at 14,000 rpm) and the supernatant was collected. Cell lysates were incubated with 1 μM I-215 for 1 hour at room temperature, then incubated with streptavidin-coupled agarose beads (ThermoFisher) overnight at 4° C. The beads were washed three times with lysis buffer and the bound proteins were boiled off the beads at 95° C. for 5 minutes in 4×LDS Sample Buffer. The amount of BTK associated with the probe I-215 was assessed by BTK western blot. All values were normalized to the DMSO-treated sample which is set to 100%.

Human naïve B cells = test: Human primary B cell proliferation assay; assay type: cell-based; details: 5 μg/ml α-IgM 72 hours, 3H-thymidine incorporation
Method in brief: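 CD19+/IgD+ naïve B cells, isolated from human whole blood by negative selection, were stimulated with 5 μg/ml α-IgM for 72 hours in the presence of compound. Proliferation was measured as ^3H-thymidine incorporation over the final 16 h.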

JAK3 = JAK3 (Homo sapiens (Human), UniProt P52333); test: Mass spectrometry for Janus-3 kinase (JAK3); assay type: binding; details: 3 hrs at 10x excess, tryptic digest
Procedure: JAK3 kinase (33 pmols; Invitrogen) was incubated with (I-7) (327 pmols) for 3 hrs at 10× excess prior to tryptic digestion. Iodoacetamide was used as the alkylating agent after compound incubation. For tryptic digests a 5 ul aliquot (5.5 pmols) was diluted with 15 ul of 0.1% TFA prior to micro C18 Zip Tipping directly onto the MALDI target using alpha cyano-4-hydroxy cinnamic acid as the matrix (5 mg/ml in 0.1% TFA:Acetonitrile 50:50).
As depicted in FIG. 11, the expected peptide ([…]) to be modified was immediately evident as the largest peak at MH+ of 1725.88. This is the mass to be expected when compound I-7, with an adduct mass of 345.16, is added to the peptide mass of 1380.70. […] There was also evidence for a number of other modified peptides, however, their signals were low.
To further verify the presence of the modified peptides with compound I-7, the peptides at MH+ of 1725.88 and 1118.55 were subjected to PSD (MS/MS) analysis. A correlational analysis with the homo sapien database identified the correct peptides as being modified by I-7.
For tryptic digests the instrument was set in Reflectron mode with a pulsed extraction setting of 2200. Calibration was done using the Laser Biolabs Pep Mix standard ([…], 1296.69, 1672.92, 2093.09, 2465.20). […]

T1 sequence (Q06187 whole entry): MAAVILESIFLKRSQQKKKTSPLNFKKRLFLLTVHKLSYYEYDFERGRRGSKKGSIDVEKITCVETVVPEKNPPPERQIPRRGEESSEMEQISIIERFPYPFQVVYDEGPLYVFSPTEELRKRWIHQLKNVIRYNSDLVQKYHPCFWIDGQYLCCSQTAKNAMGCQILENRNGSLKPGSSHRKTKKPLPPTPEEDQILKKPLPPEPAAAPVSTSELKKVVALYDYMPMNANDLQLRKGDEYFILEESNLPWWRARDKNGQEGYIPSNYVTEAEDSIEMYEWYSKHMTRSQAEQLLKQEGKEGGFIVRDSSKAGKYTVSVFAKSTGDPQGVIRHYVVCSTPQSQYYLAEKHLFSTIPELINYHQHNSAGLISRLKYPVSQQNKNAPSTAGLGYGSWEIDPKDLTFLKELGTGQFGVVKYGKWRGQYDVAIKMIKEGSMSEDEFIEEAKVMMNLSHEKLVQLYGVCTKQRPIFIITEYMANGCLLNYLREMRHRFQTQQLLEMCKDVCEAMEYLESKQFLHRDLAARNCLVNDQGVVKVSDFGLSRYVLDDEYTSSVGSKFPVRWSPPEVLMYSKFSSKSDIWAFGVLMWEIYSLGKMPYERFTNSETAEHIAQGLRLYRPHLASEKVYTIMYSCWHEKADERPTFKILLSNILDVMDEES
JAK3, sequence (P52333 whole entry): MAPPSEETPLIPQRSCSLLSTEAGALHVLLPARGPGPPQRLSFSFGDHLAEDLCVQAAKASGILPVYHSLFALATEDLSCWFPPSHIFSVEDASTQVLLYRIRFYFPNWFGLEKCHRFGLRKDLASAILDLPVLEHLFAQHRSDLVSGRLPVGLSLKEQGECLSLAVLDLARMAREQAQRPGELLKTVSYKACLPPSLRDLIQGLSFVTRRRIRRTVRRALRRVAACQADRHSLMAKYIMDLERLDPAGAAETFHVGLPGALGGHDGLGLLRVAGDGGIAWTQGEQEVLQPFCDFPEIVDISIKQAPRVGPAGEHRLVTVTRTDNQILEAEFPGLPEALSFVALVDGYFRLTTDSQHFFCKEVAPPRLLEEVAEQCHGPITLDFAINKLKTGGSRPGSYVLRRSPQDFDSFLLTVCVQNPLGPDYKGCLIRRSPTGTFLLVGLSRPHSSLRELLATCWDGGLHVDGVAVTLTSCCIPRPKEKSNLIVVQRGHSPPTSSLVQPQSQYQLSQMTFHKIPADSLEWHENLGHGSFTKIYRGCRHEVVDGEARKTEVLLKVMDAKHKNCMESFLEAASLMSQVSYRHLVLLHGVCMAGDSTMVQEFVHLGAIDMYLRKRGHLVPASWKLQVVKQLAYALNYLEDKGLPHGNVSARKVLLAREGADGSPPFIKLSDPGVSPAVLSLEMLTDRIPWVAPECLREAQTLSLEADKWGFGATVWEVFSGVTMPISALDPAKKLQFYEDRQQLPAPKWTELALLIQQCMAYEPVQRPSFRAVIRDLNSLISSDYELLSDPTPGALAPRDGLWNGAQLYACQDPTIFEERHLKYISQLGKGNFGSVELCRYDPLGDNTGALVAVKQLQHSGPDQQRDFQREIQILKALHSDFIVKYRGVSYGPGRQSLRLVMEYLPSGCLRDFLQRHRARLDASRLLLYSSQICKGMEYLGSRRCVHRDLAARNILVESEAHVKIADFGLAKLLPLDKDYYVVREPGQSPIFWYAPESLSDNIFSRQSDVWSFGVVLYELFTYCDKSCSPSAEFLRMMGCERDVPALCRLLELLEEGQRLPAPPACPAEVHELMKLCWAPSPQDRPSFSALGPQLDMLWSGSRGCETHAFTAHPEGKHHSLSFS

>50% occupancy (concentration at which >50% of BTK is occupied) (BTK [1]): A (greater than 1 nM) | >90% occupancy (concentration at which >90% of BTK is occupied) (BTK [1]): B (greater than 10 nM) | BTK occupancy (BTK available to probe I-215) (BTK [2]): fully occupied | covalent modification of JAK3 peptide LVMEYLPSGCLR (Cys909) by mass spectrometry (JAK3): not entirely complete
Compound: C=CC(=O)Nc1cccc(Nc2nc(Nc3ccccc3)ncc2C)c1 [Compound I-7, N-(3-(5-methyl-2-(phenylamino)pyrimidin-4-ylamino)phenyl)acrylamide]
EC50 (Human naïve B cells): 1 to 10 nM
